What is called IC50 is the midpoint of a concentration-inhibition curve.

Each structure is given as a SMILES string.

The target in this assay is T1, human nAChRα6-α3 chimera, in addition to β2 and β3^V273S subunits (Homo sapiens, UniProt P32297+Q15825).
T1 construct: expressed in transfected cells
T1 sequence (Q05901 25-458 V273S): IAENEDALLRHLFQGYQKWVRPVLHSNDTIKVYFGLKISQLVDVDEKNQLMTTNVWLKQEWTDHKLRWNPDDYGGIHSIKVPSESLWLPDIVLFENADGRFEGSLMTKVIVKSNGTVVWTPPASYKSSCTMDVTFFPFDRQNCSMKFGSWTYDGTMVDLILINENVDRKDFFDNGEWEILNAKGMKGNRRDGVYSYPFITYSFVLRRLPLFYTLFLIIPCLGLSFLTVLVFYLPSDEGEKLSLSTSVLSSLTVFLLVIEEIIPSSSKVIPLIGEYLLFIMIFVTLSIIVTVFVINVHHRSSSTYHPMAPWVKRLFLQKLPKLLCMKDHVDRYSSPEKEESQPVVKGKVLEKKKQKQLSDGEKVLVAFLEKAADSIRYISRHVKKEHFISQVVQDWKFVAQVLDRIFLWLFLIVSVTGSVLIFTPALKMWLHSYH
T1 sequence (P17787 26-502, stated change not applied, further chain): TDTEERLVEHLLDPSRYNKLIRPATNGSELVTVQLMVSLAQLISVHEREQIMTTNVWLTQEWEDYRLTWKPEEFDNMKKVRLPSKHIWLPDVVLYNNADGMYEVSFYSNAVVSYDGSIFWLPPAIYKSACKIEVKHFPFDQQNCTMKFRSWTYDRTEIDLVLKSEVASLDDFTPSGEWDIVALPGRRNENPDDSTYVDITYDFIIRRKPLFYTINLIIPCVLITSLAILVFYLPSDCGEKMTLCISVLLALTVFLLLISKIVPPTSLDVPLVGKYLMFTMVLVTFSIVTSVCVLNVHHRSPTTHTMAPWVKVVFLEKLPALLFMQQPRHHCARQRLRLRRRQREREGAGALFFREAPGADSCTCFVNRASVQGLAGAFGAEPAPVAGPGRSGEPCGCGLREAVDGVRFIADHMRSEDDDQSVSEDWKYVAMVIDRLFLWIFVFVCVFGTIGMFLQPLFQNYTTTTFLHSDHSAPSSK
T1 sequence (Q15825+P32297 fused with the stated changes): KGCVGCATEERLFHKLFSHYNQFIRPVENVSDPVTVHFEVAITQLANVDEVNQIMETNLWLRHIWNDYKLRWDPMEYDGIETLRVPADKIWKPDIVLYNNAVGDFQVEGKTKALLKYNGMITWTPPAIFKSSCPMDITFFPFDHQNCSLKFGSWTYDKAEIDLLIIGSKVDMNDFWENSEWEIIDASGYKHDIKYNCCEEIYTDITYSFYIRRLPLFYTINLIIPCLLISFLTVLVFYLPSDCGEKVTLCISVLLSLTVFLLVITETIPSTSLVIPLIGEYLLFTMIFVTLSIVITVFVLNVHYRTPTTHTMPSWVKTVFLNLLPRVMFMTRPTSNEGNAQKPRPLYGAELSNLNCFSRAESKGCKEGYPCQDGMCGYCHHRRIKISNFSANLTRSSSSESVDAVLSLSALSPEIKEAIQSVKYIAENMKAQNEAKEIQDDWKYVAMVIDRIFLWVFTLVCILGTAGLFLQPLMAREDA
Put plainly: fluorescence-based calcium assay: inhibition of nicotine stimulated nAChRα6 activity (FLIPR). The settings on record: HEK cell line stably expressing the receptor; 10 min pre-incubation, nicotine EC80; 10-point curve, duplicate wells; read-out: IC50. As to the method:
The ability of the test compounds to inhibit nicotine stimulated nAChRα6 activity was determined in a fluorescence-based calcium assay. Compound activity was determined using a HEK cell line stably expressing a human nAChRα6-α3 chimera, in addition to β2 and β3^V273S subunits (as in Capelli et al, Br J Pharmacol 163(2): 313-29 2011). In this cell line, nicotine stimulated an increase in intracellular calcium concentration, measured as an increase in fluorescence when cells were incubated with a calcium sensitive dye. Test compounds were pre-incubated with cells prior to nicotine stimulation to detect any reduction in the magnitude of the nicotine response.
The day prior to the assay, compounds were serially diluted in DMSO (200× final assay concentration (FAC)), in 384-well plates which were then stored in the dark at room temperature (RT) until use. Cells were seeded at 20 k/well in black, poly-D-lysine coated, clear bottom 384-well plates and incubated for 4 hours at 37° C., followed by overnight incubation at 30° C. The following day, the DMSO compound plate was diluted 1:20 (10×FAC) in assay buffer (HEPES buffered saline solution with 10 mM HEPES, 0.1% bovine serum albumin, 1 mM probenecid). A nicotine solution was prepared in assay buffer (7×FAC) and dispensed into a 384-well plate. The growth media was removed from the cell plate, replaced with 53 μl calcium dye/well (Calcium 5; Molecular Devices) and the plate incubated at 30° C. for 45 minutes. Test compounds were then added to the cells (7 μl of 10×FAC) and incubated for 10 minutes, after which nicotine EC80 (10 μl of 7×FAC) was added and changes in fluorescence measured using a FLIPR plate reader (Molecular Devices).
Compound activity was examined using a 10-point, half-log concentration-response range and each concentration was tested in duplicate wells.
Take `COc1ccc(-c2cnc(NC3CCCC(OC)C3)nc2C)c(F)c1` (single isomer, unassigned) [Example 53a, 5-(2-fluoro-4-methoxyphenyl)-N-(3-methoxycyclohexyl)-4-methyl-pyrimidin-2-amine]: the IC50 amounted to 1240 nM.
The same measure for `COc1ccc(-c2cnc(NC3CCCC(OC)C3)nc2C)c(F)c1` (single isomer, unassigned) [Example 53b, 5-(2-fluoro-4-methoxyphenyl)-N-(3-methoxycyclohexyl)-4-methyl-pyrimidin-2-amine]: 734 nM.
Regarding `COc1ccc(-c2nnc(NCC3CCCN3C)nc2C)c(F)c1` (single isomer, unassigned) [Example 54a, 6-(2-fluoro-4-methoxyphenyl)-5-methyl-N-((1-methylpyrrolidin-2-yl)methyl)-1,2,4-triazin-3-amine], the IC50 is 331 nM.
The same measure for `COc1ccc(-c2nnc(NCC3CCCN3C)nc2C)c(F)c1` (single isomer, unassigned) [Example 54b, 6-(2-fluoro-4-methoxyphenyl)-5-methyl-N-((1-methylpyrrolidin-2-yl)methyl)-1,2,4-triazin-3-amine]: 442 nM; for `Cc1nc(NC2CCCC(N(C)C)C2)ncc1-c1ccc(F)cc1F` (single isomer, unassigned) [Example 55a, N^1-(5-(2,4-difluorophenyl)-4-methyl-pyrimidin-2-yl)-N^3,N^3-dimethylcyclohexane-1,3-diamine]: 98 nM; for `Cc1nc(NC2CCCC(N(C)C)C2)ncc1-c1ccc(F)cc1F` (single isomer, unassigned) [Example 55b, N^1-(5-(2,4-difluorophenyl)-4-methyl-pyrimidin-2-yl)-N^3,N^3-dimethylcyclohexane-1,3-diamine]: 81 nM.
In the case of `COc1ccc(-c2cnc(NC3CCCC(N(C)C)C3)nc2C#N)c(F)c1` (single isomer, unassigned) [Example 56a, 2-((3-(dimethylamino)cyclohexyl)amino)-5-(2-fluoro-4-methoxyphenyl) pyrimidine-4-carbonitrile] it was 133 nM; in that of `COc1ccc(-c2cnc(NC3CCCC(N(C)C)C3)nc2C#N)c(F)c1` (single isomer, unassigned) [Example 56b, 2-((3-(dimethylamino)cyclohexyl)amino)-5-(2-fluoro-4-methoxyphenyl) pyrimidine-4-carbonitrile], 162 nM; in that of `COc1ccc(-c2nnc(NCC3CCCCN3C)nc2C)c(F)c1` (single isomer, unassigned) [Example 57a, 6-(2-fluoro-4-methoxyphenyl)-5-methyl-N-((1-methylpiperidin-2-yl)methyl)-1,2,4-triazin-3-amine], 139 nM.
In the case of `COc1ccc(-c2nnc(NCC3CCCCN3C)nc2C)c(F)c1` (single isomer, unassigned) [Example 57b, 6-(2-fluoro-4-methoxyphenyl)-5-methyl-N-((1-methylpiperidin-2-yl)methyl)-1,2,4-triazin-3-amine] it was 144 nM; in that of `CN(C)C1CCC(Nc2ncc(-c3ccc(F)cc3F)c(C#N)n2)C1` (single isomer, unassigned) [Example 58a, 5-(2,4-difluorophenyl)-2-((3-(dimethylamino)cyclopentyl)amino) pyrimidine-4-carbonitrile], 38 nM; in that of `CN(C)C1CCC(Nc2ncc(-c3ccc(F)cc3F)c(C#N)n2)C1` (single isomer, unassigned) [Example 58b, 5-(2,4-difluorophenyl)-2-((3-(dimethylamino)cyclopentyl)amino) pyrimidine-4-carbonitrile], 56 nM.
Consider `CN(C)C1CCCC(Nc2ncc(-c3ccc(F)cc3F)c(C#N)n2)C1` (single isomer, unassigned) [Example 59a, 5-(2,4-difluorophenyl)-2-((3-(dimethylamino)cyclohexyl)amino) pyrimidine-4-carbonitrile], for which the IC50 is 202 nM.
In the case of `CN(C)C1CCCC(Nc2ncc(-c3ccc(F)cc3F)c(C#N)n2)C1` (single isomer, unassigned) [Example 59b, 5-(2,4-difluorophenyl)-2-((3-(dimethylamino)cyclohexyl)amino) pyrimidine-4-carbonitrile] it was 134 nM; in that of `Cc1nc(NC(C)C2CCN(C)C2)ncc1-c1ccc(F)cc1F` (single isomer, unassigned) [Example 64a, 5-(2,4-difluorophenyl)-4-methyl-N-(1-(1-methylpyrrolidin-3-yl)ethyl) pyrimidin-2-amine], 90 nM.
On to `Cc1nc(NC(C)C2CCN(C)C2)ncc1-c1ccc(F)cc1F` (single isomer, unassigned) [Example 64b, 5-(2,4-difluorophenyl)-4-methyl-N-(1-(1-methylpyrrolidin-3-yl)ethyl) pyrimidin-2-amine], for which the IC50 was found to be 88 nM.
The same measure for `Cc1nc(NC2CC(N(C)C)C2)ncc1-c1ccc(F)cc1F` (single isomer, unassigned) [Example 68a, N^1-(5-(2,4-difluorophenyl)-4-methyl-pyrimidin-2-yl)-N^3,N^3-dimethylcyclobutane-1,3-diamine]: 78 nM; for `Cc1nc(NC2CC(N(C)C)C2)ncc1-c1ccc(F)cc1F` (single isomer, unassigned) [Example 68b, N^1-(5-(2,4-difluorophenyl)-4-methyl-pyrimidin-2-yl)-N^3,N^3-dimethylcyclobutane-1,3-diamine]: 67 nM.
In the case of `COc1ccc(-c2nnc(NC3CCCN(C)C3)nc2C)c(F)c1` (single isomer, unassigned) [Example 69a, 6-(2-fluoro-4-methoxyphenyl)-5-methyl-N-(1-methylpiperidin-3-yl)-1,2,4-triazin-3-amine] it was 436 nM.
The same measure for `COc1ccc(-c2nnc(NC3CCCN(C)C3)nc2C)c(F)c1` (single isomer, unassigned) [Example 69b, 6-(2-fluoro-4-methoxyphenyl)-5-methyl-N-(1-methylpiperidin-3-yl)-1,2,4-triazin-3-amine]: 309 nM; for `Cc1nc(NCC2CCCN2C)nnc1-c1ccc(F)cc1F` (single isomer, unassigned) [Example 74a, 6-(2,4-difluorophenyl)-5-methyl-N-((1-methylpyrrolidin-2-yl)methyl)-1,2,4-triazin-3-amine]: 693 nM.
As to `Cc1nc(NCC2CCCN2C)nnc1-c1ccc(F)cc1F` (single isomer, unassigned) [Example 74b, 6-(2,4-difluorophenyl)-5-methyl-N-((1-methylpyrrolidin-2-yl)methyl)-1,2,4-triazin-3-amine], the IC50 worked out at 1470 nM.
For the compound `COc1ccc(-c2nnc(NC3CCCN(C(C)C)C3)nc2C)c(F)c1` (single isomer, unassigned) [Example 76a, 6-(2-fluoro-4-methoxyphenyl)-N-(1-isopropylpiperidin-3-yl)-5-methyl-1,2,4-triazin-3-amine], the IC50 turned out to be 118 nM.
In the case of `COc1ccc(-c2nnc(NC3CCCN(C(C)C)C3)nc2C)c(F)c1` (single isomer, unassigned) [Example 76b, 6-(2-fluoro-4-methoxyphenyl)-N-(1-isopropylpiperidin-3-yl)-5-methyl-1,2,4-triazin-3-amine] it was 107 nM; in that of `Cc1nc(NC2CCCN(C)C2)ncc1-c1ccc(F)cc1F` (single isomer, unassigned) [Example 77a, 5-(2,4-difluorophenyl)-4-methyl-N-(1-methylpiperidin-3-yl)pyrimidin-2-amine], 70 nM.
Consider `Cc1nc(NC2CCCN(C)C2)ncc1-c1ccc(F)cc1F` (single isomer, unassigned) [Example 77b, 5-(2,4-difluorophenyl)-4-methyl-N-(1-methylpiperidin-3-yl)pyrimidin-2-amine], for which the IC50 was 93 nM.
For `CCN1CCC[C@@H](Nc2ncc(-c3ccc(F)cc3F)c(C)n2)C1` (single isomer, unassigned) [Example 78a], the IC50 turned out to be 61 nM.
The same measure for `Cc1nc(NCC2COCCN2C)ncc1-c1ccc(F)cc1F` (single isomer, unassigned) [Example 79a, 5-(2,4-difluorophenyl)-4-methyl-N-((4-methylmorpholin-3-yl)methyl) pyrimidin-2-amine]: 420 nM; for `Cc1nc(NCC2COCCN2C)ncc1-c1ccc(F)cc1F` (single isomer, unassigned) [Example 79b, 5-(2,4-difluorophenyl)-4-methyl-N-((4-methylmorpholin-3-yl)methyl) pyrimidin-2-amine]: 296 nM; for `Cc1nc(NCC2NCCC2(F)F)ncc1-c1ccc(F)cc1F` (single isomer, unassigned) [Example 83a, 5-(2,4-difluorophenyl)-N-((3,3-difluoropyrrolidin-2-yl)methyl)-4-methyl-pyrimidin-2-amine]: 1150 nM.

Source of the values: patent publication US20240059677A1, “SUBSTITUTED PYRIMIDINE DERIVATIVES AS NICOTINIC ACETYLCHOLINESTERASE RECEPTOR ALPHA 6 MODULATOR” (priority 2020, published 2024).
